Values of other authors in US10011626B2, “Method for the purification of decitabine” (Johnson Matthey Public Limited Company, priority 2012, dated 2018).

Nc1ncn([C@H]2CC(O)[C@@H](CO)O2)c(=O)n1 (stereo partly drawn) [decitabine, 4-amino-1-(2-deoxy-β-D-erythropentofuranosyI)-1,3,5-triazin-2-(1H)-one]
solubility in 1,1,1,3,3,3-hexafluoro-2-propanol (solvent: 1,1,1,3,3,3-hexafluoro-2-propanol, slightly soluble): about 18 mg/mL
solubility in methyl sulfoxide (solvent: methyl sulfoxide): approximately 37 mg/mL
solubility in water (solvent: water, sparingly soluble): about 8 mg/mL
